The values below come from a melting point compilation (Tetko et al.; mined from patent text by program, amines drawn as free bases though some values may be those of a salt).

As a reminder, the melting point is the temperature of the solid-liquid transition. With `CCCN(C(=S)n1ccnc1)c1ccccc1Cl`, the melting point lay within 59 to 61 °C.

In turn, `Fc1ccc(N=Cc2ccccc2)c(F)c1` yielded a melting point of 51 to 52 °C.

As for `N#CC1(CCNC(=O)C(Cl)Cl)CC1`, the melting point fell in the range of 97 to 100 °C.

Turning to `Cn1c(COc2ccc(CC3SC(=O)N(C(c4ccccc4)(c4ccccc4)c4ccccc4)C3=O)cc2)nc2cccnc21` (centres undefined), the melting point was in the range of 97 to 102 °C.

With `Cc1cc(C)c(N2CCCc3c2nn(C)c3-c2ccccc2C(F)(F)F)c(C)c1`, the melting point was 59 to 63 °C.

The compound `Cn1c(C(=O)N[C@H]2CCCC[C@H]2C(=O)N[C@@H](CCC(N)=O)C(N)=O)cc2ccccc21` yielded a melting point of 234 to 235 °C.

The compound `COc1cc2c(c(OC(C)=O)c1)C1CCC3(C)C(O)CCC3C1CC2` (centres undefined) returned a melting point of 107 to 110 °C.

Compound `COCn1c(C(N)=O)c(OC(C)C)c2cc(OC)ccc21` had a melting point of 145 to 147 °C.

In turn, `O=C(N[C@H]1CC[C@H](CCN2CCC(c3cccc4c3CCO4)CC2)CC1)c1ccc(Cl)cc1Cl` returned a melting point of 188 °C.

Take `O=C1Cc2cc3cc(OCCCC(=O)N4CCN(CC5CCCCC5)CC4)ccc3nc2N1`: the melting point was 212 °C.

As to `CCCc1c(OCCCCCOc2ccc3c(=O)cc(C(=O)OCC)oc3c2CCC)ccc(C(C)=O)c1O`, the melting point fell in the range of 90 to 91 °C.

As to `CC(C)Oc1cc(CC(=O)O)c(F)cc1Cl`, the melting point lay within 57 to 58 °C.

Compound `CCOC(=O)c1nc2ccccc2nc1C` displayed a melting point of 74 to 75 °C.

As for `CC1(C)OC[C@H](COn2cnc3c(Cl)nc(NC=O)nc32)O1`, the melting point lay in the range of 145 to 148 °C.

`COc1ccc(-c2n[nH]c(N=CN(C)C)c2C#N)cc1` had a melting point of 169 to 171 °C.

`O=C(c1ccc(Cl)cc1)c1c(N2C(=O)c3ccccc3C2=O)sc(Br)c1CBr`: the melting point was 173 to 175 °C.

`Cc1sc(C)c2c1CCC=C2c1cn(C(c2ccccc2)(c2ccccc2)c2ccccc2)cn1` showed a melting point of 205 to 207 °C.

`O=S(c1ccc2c(c1)C(=C1CCN(CC3CC3)CC1)c1ccccc1C=C2)C(F)(F)F` (centres undefined) returned a melting point of 146 to 148 °C.

In turn, `COc1c(C(C)(C)C)cc(C=C2CCON(C)C2=O)cc1C(C)(C)C` gave a melting point of 119 to 121 °C.

Consider `CC(=O)Nc1cc(C)c(OC(C)=O)cc1C`, for which the melting point was 177 °C.

On to `Nc1ncnc2[nH]c(=O)sc12`, for which the melting point is above 370 °C.

Compound `CC(NC=O)c1ccccc1C(F)(F)C(F)(F)c1ccccc1` (centres undefined) returned a melting point of 103 to 105 °C.

As for `Nc1cc(C(=O)OCCN2CCCCC2)c2oc(-c3ccccc3)cc2c1`, the melting point is 126 to 128 °C.

`Cc1ccc(Nc2nnc(Cc3ccncc3)c(C)c2C)cc1`: the melting point lay within 68 to 70 °C.

Turning to `CC1(C(=O)NC(CCC(=O)O)Cc2ccccc2)Cc2c([nH]c3ccccc23)CN1C(=O)OC1C2CC3CC(C2)CC1C3` (centres undefined), the melting point lay in the range of 133 to 138 °C.

`O=C(O)c1cc(C(=O)O)cc(P(=O)(c2ccccc2)c2ccccc2)c1`: the melting point was 283 to 286 °C.

For the compound `CCOC(=O)c1cccc(CN2CCN(c3nc(C)c(C(=O)NCc4ccccc4)s3)C2=O)c1`, the melting point was in the range of 118 to 120 °C.

Compound `C=CCc1c(C(=O)N(C)C)cn2cc(C)nc2c1OC(=O)C(C)(C)C` showed a melting point of 178 to 180 °C.

`Cc1ccc(S(=O)(=O)N(C)c2ccc(Cl)cc2S(C)=O)cc1` (centres undefined) displayed a melting point of 142 to 144 °C.

Compound `O=C1Nc2cccnc2N(C(=O)NCCN2CCCCC2CN2CCCC2)c2ccccc21` (centres undefined) gave a melting point of 198 °C.

Compound `CCc1nc(Cl)c([N+](=O)[O-])c(NC2CC2)n1` showed a melting point of 61 to 62 °C.

Consider `COC(=O)C1(c2ccc(OCCN)cc2)CC1`, for which the melting point was in the range of 119 to 122 °C.

With `COC(=O)C1=Cc2ccc(OCc3nc(-c4ccccc4)oc3C)cc2CC1`, the melting point was 130 to 131 °C.

In turn, `COc1ccc(N(C(=O)CN2C(=O)C(Cc3nn(Cc4ccccc4)c4c3CCCC4)C(=O)N(c3ccccc3)c3ccccc32)C(C)C)cc1` (centres undefined) showed a melting point of 173 to 176 °C.

Consider `CCN1CC2(CCN(Cc3ccccc3)CC2)OC1=O`, for which the melting point is 105 to 106 °C.

Regarding `NC(=O)C(Nc1ccccc1[N+](=O)[O-])c1c(Cl)cccc1Cl` (centres undefined), the melting point was 182 °C.

Regarding `CC(C)(C)OC(=O)C(CNC(=O)c1ccc(O)cc1)NC(=O)OCc1ccccc1` (centres undefined), the melting point was 69 °C.

In the case of `CCCCCCCCCCCCCCCCS(=O)(=O)NCCc1ccc(OCC(=O)O)cc1`, the melting point stood at 138 °C.

In turn, `CNC(=S)NS(=O)(=O)C(F)(F)F` showed a melting point of 88 to 90 °C.

The compound `NC(=O)CCn1c(=S)sc2ccc(Cl)cc21` showed a melting point of 215 to 217 °C.

Turning to `Cn1cc(C2=C(c3cn(CCCO)c4ccccc34)C(=O)NC2=O)c2ccccc21`, the melting point lay in the range of 185 to 187 °C.

For `Nc1nc(-c2cc(Cl)ccc2Cl)nc(N2CCC2)n1`, the melting point fell in the range of 207 to 208 °C.

On to `CCOCc1nc2c(N)nc3ccccc3c2n1CCC1(O)CC1`, for which the melting point was 210 to 211 °C.

`Cc1oc(-c2ccco2)nc1COc1ccc(COc2ncccc2CC#N)cc1`: the melting point was 141 to 142 °C.

In turn, `OCc1ccc(-c2nn(Cc3ccccc3)c3ccccc23)o1` came in with a melting point of 108 to 109 °C.

Regarding `COc1cc2c(cc1F)C(c1ccccc1Cl)=NC1=C(C)NNC1=N2`, the melting point lay within 217 to 218 °C.

Consider `CCOC(=O)C(=O)Nc1cccc(C)n1`, for which the melting point lay in the range of 61 to 63 °C.

In turn, `Nc1ccc(CCc2ccc(Cl)c(Cl)c2)cc1O` returned a melting point of 147 to 149 °C.

`FCc1cccc(-c2ccc(-c3cn([C@H]4CN5CCC4CC5)nn3)s2)c1` registered a melting point of 144 °C.

Compound `Cc1ccc([N+](=O)[O-])cc1Nc1nccc(-c2cccnc2)n1` gave a melting point of 186 to 188 °C.

On to `COCc1cccc2c1OCCC(C(=O)OC)=C2`, for which the melting point was 76 to 78 °C.

Compound `O=c1c2cc(Oc3ccc(Cl)cc3)ccc2nnn1Cc1cccnc1` displayed a melting point of 134 to 136 °C.

`CCOC(=O)C1=CC(=O)C2(C(=O)c3ccc(OC)cc3)OC2O1` (centres undefined) showed a melting point of 96 °C.

Take `CSC(=C[N+](=O)[O-])NCCSCc1ncccc1Br`: the melting point lay in the range of 79 to 80 °C.

As to `COc1cc(-c2ccc(C(F)(F)F)cc2)c(C(C)=NOCc2ccc([N+](=O)[O-])cc2)cc1O`, the melting point lay in the range of 112 to 114 °C.

`COc1cc(C(C)C)c2c(c1)S(=O)(=O)N(COc1cc(C(F)(F)F)nn1-c1ccc(Cl)cc1)C2=O` returned a melting point of 160 to 161 °C.

Consider `CCCCCN1C(=O)C2(COc3cc4c(cc32)OCO4)c2cccnc21` (centres undefined), for which the melting point lay in the range of 126 to 127 °C.

`OC(Cc1ccc(Cl)cc1Cl)(Cn1cncn1)c1ccc(-c2ccccc2)cc1` (centres undefined) had a melting point of 124 °C.

As for `CC(=O)NCCC(=O)Nc1cccc(-c2cc(-c3ccc(Cl)cc3O)nc(NC(=O)c3cccs3)c2C#N)c1`, the melting point is 209 to 210 °C.

The compound `CNc1cc(C)nc2c(S(=O)(=O)c3ccccc3)c(SC)nn12` returned a melting point above 230 °C.

In turn, `CC1(C)Sc2oc(S(N)(=O)=O)cc2C1=O` came in with a melting point of 167 to 169 °C.

Consider `O=C(O)CN1CCCC(n2nc(-c3c(-c4ccccc4)nn4ccccc34)ccc2=O)C1=O` (centres undefined), for which the melting point lay within 145 to 150 °C.

Consider `O=c1ccc(S(=O)(=O)c2cc3c(=O)[nH]ccc3o2)n[nH]1`, for which the melting point was above 275 °C.

In the case of `O=C(OCCCCCCCCCCCCBr)C1CC1`, the melting point lay in the range of 29 to 31 °C.

Turning to `CC(=O)NN=C(C)c1ccncc1`, the melting point turned out to be 178 °C.

Compound `COc1ccc(CC#N)c(CC#N)c1` registered a melting point of 49 to 51 °C.

In turn, `O=C(OCCC1CCCCC1)c1ncn2c1[C@@H]1CCCN1C(=O)c1c(Cl)cccc1-2` showed a melting point of 131 to 132 °C.

Regarding `O=C1c2ccsc2S(=O)(=O)CCN1CCCCN1CCN(c2ncccn2)CC1`, the melting point lay in the range of 161 to 163 °C.

In the case of `O=c1c2ccccc2nc(-c2sc(Nc3ccccc3)nc2-c2ccccc2)n1-c1ccc(Cl)cc1`, the melting point was 218 to 222 °C.

Turning to `COc1cc2c(Cl)c(C#N)cnc2cc1F`, the melting point lay within 160 to 162 °C.

As to `COC(=O)/C=C/CSc1nc(N)cc(Cl)n1`, the melting point lay within 146 to 149 °C.

Compound `O=c1c2ccccc2c(Br)cn1C1CN2CCC1CC2` (racemic) gave a melting point of 208 to 209 °C.

In turn, `COc1cc(OC)cc(C(=O)c2ccc(OC(F)F)c(OC(F)F)c2)c1` yielded a melting point of 60 to 62 °C.

`CC(C)C1NC(=O)CN1C(=O)CN` (centres undefined) gave a melting point of 141 to 143 °C.

The compound `COC(=O)c1ccc(-c2nc(-c3ccc(Cl)cc3)cs2)cc1` displayed a melting point of 186 to 187 °C.

For `CS(=O)(=O)c1ccc(-c2c(-c3ccc(F)cc3)c(OCc3c(F)cccc3Cl)nn2Cc2c(F)cccc2Cl)cc1`, the melting point lay in the range of 195 to 196 °C.

On to `CC1(C)C(=O)N(c2ccc(C#N)c(C(F)(F)F)c2)C(=O)N1CCCC(=O)O`, for which the melting point was 179 to 180 °C.

`CS(=O)(=O)Nc1cc(OC[C@@H](O)CNC2CCN(c3ccc(C#N)cc3)CC2)ccc1O` gave a melting point of 78 to 80 °C.

In the case of `C=CC=CCC1=C(C)C(OC(=O)C2C(C=C(C)C)C2(C)C)CC1=O` (centres undefined), the melting point is 57 °C.

For `CS(=O)(=O)Nc1ccc(CO)cc1Sc1ccc(F)cc1F`, the melting point was in the range of 78 to 79 °C.

The compound `Oc1ccc(O)c2c1CC(O)C(O)C2` (centres undefined) came in with a melting point of 221 to 224 °C.

In turn, `CC(C)(C)OC(=O)CC1(SN=O)C2CC3CC(C2)CC1C3` (centres undefined) displayed a melting point of 85 to 87 °C.

`O=C(c1ccccc1)N1CCc2cc(S(=O)(=O)n3cc(-c4ccccc4)[nH]c3=O)ccc21` displayed a melting point of 167 to 170 °C.

For the compound `Cn1c(CC(=O)NC2CN3CCC2CC3)cc2ccccc21` (centres undefined), the melting point fell in the range of 185 to 187 °C.

For the compound `COc1ccc(-c2cc(=O)n(Cc3ccc(Cl)cc3)nc2-c2ccc(OC)cc2)cc1`, the melting point lay within 124 to 127 °C.

Consider `CCCc1ccccc1Sc1c(C)n(CC(=O)O)c2ccc(NS(C)(=O)=O)cc12`, for which the melting point turned out to be 160 °C.

As for `Cc1ccc2c(c1)C1(COc3cc4c(cc31)OCCO4)C(=O)N2Cc1ncccc1C(F)(F)F` (centres undefined), the melting point is 137 to 139 °C.

On to `CC1(C)CS(=O)(=O)CC(C)(C)N1N=O`, for which the melting point stood at 184 °C.

`CCOC(=O)CCCOc1ccc(C2=NNC(=O)CC2)cc1Cl` yielded a melting point of 109 to 110 °C.
